The values below come from patent US10815183B2, “Substituted aromatic compounds and pharmaceutical uses thereof” (PROMETIC PHARMA SMT LIMITED, priority 2009, dated 2020).

The test system of one series is bone marrow cells. In words: Chemoprotection studies: bone marrow and blood cell counts in cyclophosphamide immunosuppressed mice (hematopoiesis/erythropoiesis). In kind it is in vivo, C57BL/6 mice. The conditions noted are these: for In Vivo Results: effect on hematopoiesis/erythropoiesis: degree of activity compared to the activity of compound I; for Red Blood Cells (10^9) / Red Bone Marrow Cells (10^6): mice, cyclophosphamide 200 mg/kg iv day 0, compound oral pre-treatment day -3, -2, -1, sacrifice day +5. As for the experimental part: Female C57BL/6 mice, 6 to 8 week old, were immunosuppressed by treatment with 200 mg/kg of cyclophosphamide administered intravenously at day 0. To examine the immunoprotective effect of compound I, mice were pre-treated orally at day −3, −2 and −1 with the compound. Mice were sacrificed at day +5 by cardiac puncture and cervical dislocation. Then, a gross pathological observation of the femurs (as a source of bone marrow cells) was recorded. After the sacrifice, tissues were crushed in PBS buffer and cells were counted on a hemacytometer.
Additional compounds related to compound I were also prepared and tested for biological activity.

A short description of series [1]: Doxorubicin-induced nephrotoxicity model: serum albumin, serum creatinine, histological kidney lesions. Particulars: for serum creatinine increase induced by doxorubicin: mice (FIG. 9). The series is classed as in vivo, C57Bl/6 mice. As for the experimental part:
(§1) C57Bl/6 mice (6-10 week-old) were treated with Compound I prophylacticly from day −3 to day 10 or treated therapeutically from day 1 to 10. Nephrotoxicity was induced by an intravenous injection of 10 mg/kg of doxorubicin at day 0. Serum albumin and creatinine were monitored at days 4, 7, 9 and 11.
Doxorubicin is well known to induce nephro- and cardiotoxicity. FIG. 10 represents the histological kidney lesions score as determined by histochemistry in the doxorubicin-induced nephrotoxicity model.
Doxorubicin induces early lesions primarily at the tubular region. Toxicity is further extended to the glomerulus (around day 11 post-doxorubicin). FIG. 11 represents the histological micrographs of doxorubicin-induced lesions in control and Compound I-treated (prophylactic treatment) mice. Doxorubicin induces kidney cell apoptosis, fibrosis, sclerosis and accumulation of proteins in affected tubular regions.

A further series relates to TGF-β. Put plainly: TGF-β mRNA expression in kidneys from doxorubicin-treated mice. In kind it is in vivo, C57Bl/6 mice. On the procedure:
as §1
CTGF is also regulated by TGF-β. FIG. 13 illustrates the mRNA expression of TGF-β in kidneys. Doxorubicin increases by 73% the mRNA expression of TGF-β in kidneys. Pre-treatment with Compound I induces a 26% decrease of TGF-β expression.

The test system of a further series is CTGF. In kind it is in vivo, C57Bl/6 mice. Particulars: pre-treatment, doxorubicin-treated mice (FIG. 12). On the procedure: as §1
Series [2] in a line: Heart protection in 5/6 nephrectomized rats, blood pressure. In kind it is in vivo. Particulars: Nx rats (FIG. 7). An excerpt:
(§2) Male 6 week-old Wistar rats were subjected to ⅚ nephrectomy or sham operations. Under fluothane anesthesia, renal ablation was achieved by removing two-thirds of the left kidney followed by a right unilateral nephrectomy 7 days later. Sham rats underwent exposition of the kidneys and removal of the perirenal fat. Twenty-one days after the first operation, rats were randomized in the study by their reduced glomerular filtration rate (GFR) of creatinine indicating a dysfunction of the kidney. Animals that underwent the sham operation were given vehicle (saline) and were used as controls. Nx animals were divided in groups receiving the vehicle or Compound I. Saline or Compound I was given by gastric gavage once daily up to the sacrifice. GFR was measured every three weeks in order to assess the severity of this end-stage renal disease model. Rats were sacrificed at day 190.

A short description of series [3]: Kidney protection in 5/6 nephrectomized (Nx) rat model, GFR (creatinine clearance). The series is classed as in vivo, Wistar rats.
From the text: as §2

In another series the test system is PGE2. In words: LPS-induced inflammation in the rat air-pouch model, PGE2 in pouch exudates by ELISA. The series is classed as in vivo, Lewis rats. An excerpt:
LPS-induced inflammation in the rat air-pouch model is believed to mimic the pathological process occurring in joint diseases such as arthritis. This is because the connective tissues formed along the air pouch are similar to those found in chronic joint diseases. LPS-induced inflammation and chronic joint diseases share other features, including markedly elevated PGE2, neutrophil infiltration, cytokine formation, and tissue damage.
An air cavity was produced at day −6 by subcutaneous injection of 20 ml of sterile air into the […] area of the back of male Lewis rats (175-200 g). An additional 10 ml of air was injected into the cavity at day −3 to keep the space open. At day 0, compounds were administered intravenously and one hour later lipopolysaccharide (LPS: 2.5 ml, 2 μg/ml in PBS) was injected into the pouch to produce an inflammatory reaction. Two hours after treatment with LPS, animals were euthanized by CO2 asphyxiation and 5 ml of PBS/heparin (10 U/ml)/indomethacin (36 μg/ml) was injected into the pouch. The pouch fluid was collected and PGE2 was determined in the pouch exudates by ELISA.
On the technique in general: ELISA stands for enzyme-linked immunosorbent assay.

Structures are written as SMILES.

Take `CCCCCc1cccc(C(C)C(=O)[O-])c1.[Na+]` (stereo not drawn) [Compound VIII, Sodium Salt of 2-(3-pentylphenyl)propionic Acid]: the “In Vivo Results: effect on hematopoiesis/erythropoiesis” value in the series with bone marrow cells is given as “++ (++ designates 40-70% of compound I activity)”.
Still for that read-out and setting: the same measure for `CCCCCc1cccc(CC(=O)[O-])n1.[Na+]` [XVI]: “++ (++ designates 40-70% of compound I activity)”; for `CCCCCc1cccc(CCC(=O)[O-])c1.[Na+]` [Compound V, Sodium Salt of 3-(3-pentylphenyl)propionic Acid]: “++ (++ designates 40-70% of compound I activity)”.
With `CCC/C=C/c1cccc(CC(=O)[O-])c1.[Na+]` [Compound II, Sodium Salt of E-(3-pent-1-enyl-phenyl)acetic Acid], in the series on bone marrow cells, the “In Vivo Results: effect on hematopoiesis/erythropoiesis” value was “+++ (+++ designates 70 to 100% of compound I activity)”.
Turning to `O=P1(N(CCCl)CCCl)NCCCO1` (stereo not drawn) [Cyclophosphamide, reference compound], in the series with bone marrow cells, the “Red Blood Cells (10^9)” value is recorded as 5.7 10^9 and the “Red Bone Marrow Cells (10^6)” value is on record as 8.1 10^6.
`CCCCCc1cc(CCC(=O)[O-])ccc1F.[Na+]` [Compound IV, Sodium Salt of 3-(4-fluoro-3-pentylphenyl)propionic Acid]: the “In Vivo Results: effect on hematopoiesis/erythropoiesis” value with bone marrow cells is listed as “+++ (+++ designates 70 to 100% of compound I activity)”.
On the same count and under the same terms, the same measure for `CCCCCc1ccc(C(=O)[O-])cc1.[Na+]` [Compound XII, Sodium Salt of 4-Pentylbenzoic Acid]: “++ (++ designates 40-70% of compound I activity)”.
Regarding `COc1cccc2c1C(=O)c1c(O)c3c(c(O)c1C2=O)C[C@@](O)(C(=O)CO)C[C@@H]3O[C@H]1C[C@H](N)[C@H](O)[C@H](C)O1` [Doxorubicin, reference compound], in series [1] (doxorubicin 10 mg/kg iv day 0, mice, day 7 and 11), the “histological kidney lesions induced” value was “significant kidney lesions”. In the series with TGF-β (doxorubicin 10 mg/kg iv, mice), the “increase of mRNA expression of TGF-β in kidneys” value came out at 73%.
Regarding `CCCCc1cccc(CCC(=O)[O-])c1.[Na+]` [Compound IX, Sodium Salt of 3-(3-butylphenyl)propionic Acid], in the series with bone marrow cells, the “In Vivo Results: effect on hematopoiesis/erythropoiesis” value is given as “++ (++ designates 40-70% of compound I activity)”.
Regarding `CCCCCc1cccc(CC(=O)[O-])c1.[Na+]` [Compound I, Sodium Salt of 3-Pentylphenylacetic Acid], the “CTGF expression in kidneys” value with CTGF is “significant decrease”. For the same molecule, the blood pressure entry in series [2] was “significant decrease”. For the same molecule, in series [1] (prophylactic (pre-doxorubicin) and therapeutic (post-doxorubicin) treatments (FIG. 10)), the “histological kidney lesions at the tubular level induced by doxorubicin” value is “reduce the kidney lesions”. Also, in series [1] (prophylactic or therapeutic treatment (FIG. 11)), the “protection of the kidney against doxorubicin toxicity (histological micrographs)” value is recorded as “protects the kidney”. Besides, the “serum albumin decrease induced by doxorubicin” value in series [1] (prophylactic treatment day -3 to day 10, oral, mice (FIG. 8)) is “inhibits the decrease”. Also, the “serum creatinine increase induced by doxorubicin” value in series [1] (prophylactic treatment day -3 to day 10, oral) is “inhibits the increase”. Also, the “serum albumin level induced by doxorubicin” value in series [1] (therapeutic treatment day 1 to 10, oral, mice (FIG. 8)) was “no effect”. Besides, the “serum creatinine increase induced by doxorubicin” value in series [1] (therapeutic treatment day 1 to 10, oral) is recorded as “inhibits the increase”. Besides, in the series with TGF-β (pre-treatment, doxorubicin-treated mice (FIG. 13)), the “decrease of TGF-β expression in kidneys” value is reported as 26%. In series [3] (Nx rats over treatment period, Nx control 50% deterioration (FIG. 6)), the “improvement of GFR compared to initial GFR (before treatment) at day 21” value came out at 50%. In addition, the “improvement of GFR (creatinine clearance)” value in series [3] (Nx rats, gastric gavage once daily, day 190 (FIG. 5)) was “two-fold”. For the same molecule, in the series on bone marrow cells (cyclophosphamide immunosuppressed mice), the “circulating red blood cells (in words)” value is recorded as “increases”. In addition, in the series with bone marrow cells, the “In Vivo Results: effect on hematopoiesis/erythropoiesis” value is “+++ (+++ designates 70 to 100% of compound I activity)”, the “Red Blood Cells (10^9)” value is on record as 7.0 10^9 and the “Red Bone Marrow Cells (10^6)” value is reported as 11.5 10^6. Further, the “red bone marrow cell count (in words)” value in the series with bone marrow cells (oral pre-treatment, cyclophosphamide immunosuppressed mice) is “increase”. The “white bone marrow cell count” value in the series on bone marrow cells (oral pre-treatment, cyclophosphamide immunosuppressed mice (FIG. 2)) is listed as “increase”. The “total bone marrow cell count” value with bone marrow cells (oral pre-treatment, cyclophosphamide treated mice (FIG. 1)) is reported as “significant increase”. For the same molecule, in the series with PGE2 (two hours after LPS), the “inhibition of PGE2 compared with positive control indomethacin” value was “similar”. Moreover, the “inhibition of PGE2” value in the series on PGE2 (two hours after administration of LPS (FIG. 3)) is given as “significant inhibition”.
`CCCC/C=C/c1cccc(CC(=O)[O-])c1.[Na+]` [XV]: the “In Vivo Results: effect on hematopoiesis/erythropoiesis” value in the series with bone marrow cells is “++ (++ designates 40-70% of compound I activity)”.
For `CCCCCc1cccc(C(CO)C(=O)[O-])c1.[Na+]` (stereo not drawn) [Compound VII, Sodium Salt of 3-Hydroxy-2-(3-pentyl-phenyl)propionic Acid], in the series on bone marrow cells, the “In Vivo Results: effect on hematopoiesis/erythropoiesis” value was “+++ (+++ designates 70 to 100% of compound I activity)”.
As to `CCCCCc1cc(O)cc(CC(=O)[O-])c1.[Na+]` [Compound XI, Sodium Salt of [3-Hydroxy-5-pentylphenyl]acetic acid], the “In Vivo Results: effect on hematopoiesis/erythropoiesis” value in the series with bone marrow cells is listed as “++++ (++++ designates greater activity than compound I)”.
Turning to `CCCCCCc1cccc(C(=O)[O-])c1.[Na+]` [Compound XIII, Sodium Salt of 3-Hexylbenzoic Acid], in the series on bone marrow cells, the “In Vivo Results: effect on hematopoiesis/erythropoiesis” value is listed as “+++ (+++ designates 70 to 100% of compound I activity)”.
`C/C=C\CCc1cccc(CC(=O)[O-])c1.[Na+]` [Compound X, Sodium Salt of E/Z-(3-Pent-3-enylphenyl)acetic Acid]: in the series with bone marrow cells, the “In Vivo Results: effect on hematopoiesis/erythropoiesis” value is reported as “+++ (+++ designates 70 to 100% of compound I activity)”.
Take `CCCCc1ccc2c(c1)CC(C(=O)[O-])C2.[Na+]` (stereo not drawn) [Compound XIV, Sodium Salt of 5-Butylindan-2-carboxylc Acid]: in the series with bone marrow cells, the “In Vivo Results: effect on hematopoiesis/erythropoiesis” value is “++ (++ designates 40-70% of compound I activity)”.
The same measure, in the same setting: the same measure for `CCCCCc1cccc(C(C)(C)C(=O)[O-])c1.[Na+]` [Compound VI, Sodium Salt of 2-Methyl-2-(3-pentylphenyl)propionic Acid]: “++ (++ designates 40-70% of compound I activity)”; for `CCCCCc1ccc(O)c(CC(=O)[O-])c1.[Na+]` [Compound III, Sodium salt of (2-hydroxy-5-pentylphenyl)acetic Acid]: “+ (+ designates 5-40% of compound I activity)”.
